Patent US7935869B2, “Chimeric gene with several herbicide tolerance genes, plant cell and plant resistant to several herbicides” (Bayer S.A.S., priority 1996, dated 2011)
Read-outs that look alike come from different tables or passages of the source.

What was measured:
[1] = system: PBD6 tobacco plants HPPD + EPSPS; assay: Postemergence tolerance of tobacco, percentage destruction; type: in vivo; conditions: 17 days after treatment
Method: (§1) In this trial, each test is performed on a sample of 10 plants, 10 plants being kept untreated.
(§2) All the treatments are performed by spraying at the rate of 500 l of spraying mixture per hectare.
(§3) For the postemergence treatment, sowing is performed and then the plants are transplanted in 9 cm×9 cm pots.
The postemergence treatments are carried out at a well developed stage (3-4 leaves). Batches of plants, respectively wild-type and genetically transformed, obtained above are divided into several parts, with:
Under these conditions, the following phytotoxicities are observed 17 days after the treatment, expressed as percentage destruction indicated in the following table, as well as the number of plants per batch and the doses of herbicide(s) expressed in gram of active substance per hectare: […]

[2] = system: PBD6 tobacco transformed with pRP 2012; assay: Tolerance of tobacco transformed with chimeric gene pRP 2012 (HPPD + double mutant EPSPS); type: in vivo; conditions: under the conditions described in Example 7
Method: The chimeric gene pRP 2012 described below is transferred into the PBD6 industrial tobacco according to the transformation and regeneration procedures already described in European Application EP No. 0 508 909.
The regeneration of the PBD6 tobacco (source SEITA France) from foliar explants is carried out on a Murashige and Skoog (MS) basal medium comprising 30 g/l of sucrose and 350 mg/l of cefotaxime and 1 mg/l of isoxaflutole. The foliar explants are removed from is greenhouse plants or in vitro and transformed according to the foliar disc technique (Science 1985, Vol. 227, p. 1229-1231) in three successive stages: the first comprises the induction of shoots on an MS medium supplemented with 30 g/l of sucrose containing 0.05 mg/l of naphthylacetic acid (ANA) and 2 mg/l of benzylaminopurine (BAP) for 15 days and 1 mg/l of isoxaflutole. The green shoots formed during this stage are then developed by culturing on an MS medium supplemented with 30 g/l of sucrose and 1 mg/l of isoxaflutole but containing no hormone, for 10 days. The shoots that have developed are then removed and they are cultured on MS rooting medium with half the content of salts, vitamins and sugars and 1 mg/l of isoxaflutole and containing no hormone. […]
All the plants obtained according to this protocol are analysed by PCR with primers specific for P. fluorescens HPPD. […]

[3] = system: wild-type tobacco without tolerance gene; assay: Postemergence tolerance of tobacco, percentage destruction; type: in vivo; conditions: 17 days after treatment
Method: as §1, §2, §3
(§4) The postemergence treatments are carried out at a well developed stage (3-4 leaves). Batches of plants, respectively wild-type and genetically transformed, obtained above are divided into several parts, with: […]

[4] = system: maize EPSPS mutant Ala 101/Ile 102; assay: EPSP synthase enzymatic activity, resistance to glyphosate in vitro; type: biochemical
Method: (§5) The various EPSP synthase genes are introduced in the form of an NcoI-HindIII cassette into the plasmid is vector pTrc99a (Pharmacia, ref: 27-5007-01) cut with NcoI and HindIII. The recombinant E. coli DH10B overexpressing the various EPSP syntheses are sonicated in 40 ml of buffer per 10 g of culotted cells and washed with this same buffer (200 mM Tris-HCl pH 7.8, 50 mM mercaptoethanol, 5 mM EDTA and 1 mM PMSF), to which 1 g of polyvinylpyrrolidone is added. The suspension is stirred for 15 minutes at 4° C. and then centrifuged for 20 minutes at 27,000 g and at 4° C.
(§6) The supernatant is supplemented with ammonium sulphate so as to bring the solution to 40% saturation with ammonium sulphate. The mixture is centrifuged for 20 minutes at 27,000 g and at 4° C. The new supernatant is supplemented with ammonium sulphate so as to bring the solution to 70% saturation with ammonium sulphate. The mixture is centrifuged for 30 minutes at 27,000 g and at 4° C. The EPSP synthase present in this protein pellet is taken up in 1 ml of buffer (20 mM Tris-HCl pH 7.8 and 50 mM mercaptoethanol). This solution is dialysed overnight against two litres of this same buffer at 4° C.
(§7) The activity of each enzyme as well as its resistance to glyphosate is measured in vitro over 10 minutes at 37° C. in the following reaction mixture: 100 mM maleic acid pH 5.6, 1 mM phosphoenol pyruvate, 3 mM shikimate-3-phosphate (prepared according to Knowles P. P. and Sprinson D. B., 1970, Methods in Enzymol., 17A, 351-352 from Aerobacter aerogenes strain ATCC 25597) and 10 mM potassium fluoride. The enzymatic extract is added at the last moment after the addition of glyphosate whose final concentration varies from 0 to 20 mM.
(§8) The activity is measured by assaying the phosphate liberated according to the technique of Tausky H. A. and Shorr B., 1953, J. Biol. Chem., 202, 675-685.

[5] = system: maize EPSPS mutant Ser106; assay: as above; type: biochemical; conditions: 0.12 mM glyphosate
Method: as §5, §6, §7, §8

[6] = target: T1, maize EPSPS mutant Ile 102 (Zea mays, UniProt A0A1D6NVZ6, T164I); assay: as above; type: biochemical
T1 sequence (A0A1D6NVZ6 63-506 T164I): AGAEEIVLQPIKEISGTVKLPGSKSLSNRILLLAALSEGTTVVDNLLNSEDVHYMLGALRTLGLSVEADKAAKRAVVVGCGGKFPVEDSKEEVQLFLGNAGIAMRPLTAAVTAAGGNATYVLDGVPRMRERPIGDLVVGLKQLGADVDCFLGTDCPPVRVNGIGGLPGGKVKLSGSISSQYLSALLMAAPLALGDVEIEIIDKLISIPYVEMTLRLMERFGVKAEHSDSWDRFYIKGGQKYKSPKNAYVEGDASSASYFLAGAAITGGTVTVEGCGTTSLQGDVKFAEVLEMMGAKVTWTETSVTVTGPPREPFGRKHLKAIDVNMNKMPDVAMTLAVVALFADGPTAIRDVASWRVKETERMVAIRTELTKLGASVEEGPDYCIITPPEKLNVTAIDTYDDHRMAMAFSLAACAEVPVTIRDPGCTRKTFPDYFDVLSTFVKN
Method: as §5, §6, §7, §8

maize EPSPS mutant Ala = assay: as above; type: biochemical
Method: as §5, §6, §7, §8

[7] = system: maize EPSPS mutant Ile 102/Ser 106; assay: as above; type: biochemical
Method: as §5, §6, §7, §8

[8] = system: wild-type (WT) maize EPSPS; assay: as above; type: biochemical; conditions: 0.12 mM glyphosate; 10 minutes at 37° C., pH 5.6
Method: as §5, §6, §7, §8

[9] = system: PBD6 tobacco overexpressing the P. fluorescens HPPD; assay: Greenhouse treatment of transformed tobacco overexpressing HPPD with isoxaflutole; type: in vivo
Text: To determine the efficiency of these two chimeric genes, they were transferred into the industrial tobacco PBD6 according to the transformation and regeneration techniques already described in European Application EP No. 0 508 909.
The vector is introduced into the non oncogenic Agrobacterium EHA 101 strain (Hood et al., 1987) carrying the cosmaid pTVK 291 (Komari et al., 1986). The transformation technique is based on the procedure by Horsh R. et al., (1985) Science, 227, 1229-1231.
The regeneration of the PBD6 tobacco (source SEITA France) from foliar explants is carried out on a Murashige and Skoog (MS) basal medium comprising 30 g/l of sucrose and 100 μg/ml of kanamycin. The foliar explants are removed from greenhouse plants or in vitro and transformed according to the foliar disc technique (Science 1985, Vol. 227, p. 1229-1231) in three successive stages: the first comprises the induction of shoots on an MS medium supplemented with 30 g/l of sucrose containing 0.05 mg/l of naphthylacetic acid (ANA) and 2 mg/l of benzylaminopurine (BAP) for 15 days. The shoots formed during this stage are then developed by culturing on an MS medium supplemented with 30 g/l of sucrose but containing no hormone, for 10 days. […]

[10] = system: control tobacco, not transformed (PBD6); assay: Greenhouse treatment of non-transformed control tobacco with isoxaflutole; type: in vivo
Method: Upon leaving in vitro, the transformed tobacco plantlets were acclimatized in a greenhouse (60% relative humidity, temperature: 20° C. at night and 23° C. during the day) for five weeks and then treated with 4-[4-CF3-2-(methylsulphonyl)benzoyl]-5-cyclopropylisoxazole.
The control tobacco, not transformed and treated with 4-[4-CF3-2-(methylsulphonyl)benzoyl]-5-cyclopropylisooxazole at doses ranging from 50 to 400 g/ha, develop chlorosis in about 72 hours, which intensifies and develops into very pronounced necrosis within one week (covering about 80% of the terminal leaves).

[11] = system: maize genotype 261 2D2 (progeny of HPPD-transformed plants); assay: Selection of maize seeds on sand after isoxaflutole treatment; type: in vivo; conditions: 10 seeds sown
Method: (§9) The transformed plants obtained above produced pollen, assumed in part to be transgenic, which fertilized ovules from a nontransgenic wild-type maize. The seeds obtained are selected on sand after treating with isoxaflutole.
(§10) The selection protocol is the following: 800 ml of Fontainebleau sand are placed in a tub with sides 15×20 cm. These tubs are then sprayed with water and kept hydrated by supplying a nutritive solution consisting of 5 ml of Quinoligo (Quinoline) per litre of water. […] The tubs are then placed in culture in a greenhouse.

[12] = system: maize genotype 261 2B 459 (progeny of HPPD-transformed plants); assay: as above; type: in vivo; conditions: 10 seeds sown
Method: as §9, §10

[13] = system: maize genotype 261 2A2 (progeny of HPPD-transformed plants); assay: as above; type: in vivo; conditions: 10 seeds sown
Method: as §9, §10

nontransgenic maize = assay: as above; type: in vivo; conditions: 100 g/ha, 20 seeds sown
Method: as §9
The selection protocol is the following: 800 ml of Fontainebleau sand are placed in a tub with sides 15×20 cm. These tubs are then sprayed with water and kept hydrated by supplying a nutritive solution consisting of 5 ml of Quinoligo (Quinoline) per litre of water. Twenty maize seeds are placed on the tubs, which are then treated with isoxaflutole by spraying at the rate of 100 to 200 g of active substance per hectare (300 or 600 μg of active substance per tub). The tubs are then placed in culture in a greenhouse.

[14] = system: PBD6 tobacco plants HPPD + OXY; assay: Postemergence tolerance of tobacco, percentage destruction; type: in vivo; conditions: 17 days after treatment
Method: as §1, §2, §3, §4

Compound: O=C(O)CNCP(=O)(O)O [glyphosate]
- phytotoxicity, percentage destruction ([1]; 800 g/ha postemergence): 0%
- phytotoxicity, percentage destruction ([1]; 1200 g/ha postemergence): 0%
- tolerance [2]: tolerant
- phytotoxicity, percentage destruction ([3]; 800 g/ha postemergence): 100%
- phytotoxicity, percentage destruction ([3]; 1200 g/ha postemergence): 100%
- inhibition of enzyme activity ([4]; 0.12 mM glyphosate): not or not strongly inhibited
- inhibition of enzyme activity ([4]; 1.2 mM glyphosate): not being inhibited
- inhibition of enzyme activity ([4]; up to concentrations of 10 m glyphosate): not inhibited
- inhibition of enzyme activity [5]: 50%
- inhibition of enzyme activity ([6]; 0.12 mM glyphosate): not or not strongly inhibited
- IC50 ([6]; 10 minutes at 37° C., pH 5.6, read-out: glyphosate concentration to inhibit the enzyme by 50%): 1200 µM
- inhibition of enzyme activity (maize EPSPS mutant Ala): not inhibited
- inhibition of enzyme activity (maize EPSPS mutant Ala; 1.2 mM glyphosate): not being inhibited
- inhibition of enzyme activity ([7]; 0.12 mM glyphosate): not or not strongly inhibited
- inhibition of enzyme activity ([7]; 1.2 mM glyphosate): not being inhibited
- reduction of enzyme activity ([7]; 20 mM glyphosate): not reduced
- inhibition of enzyme activity [8]: 85%

Compound: CS(=O)(=O)c1cc(C(F)(F)F)ccc1C(=O)c1cnoc1C1CC1 [isoxaflutole, 4-[4-CF3-2-(methylsulphonyl)benzoyl]-5-cyclopropylisoxazole]
- protection against treatment ([9]; dose of 400 g/ha): very well protected
- protection against treatment, symptoms ([9]; enzyme overexpressed in the chloroplast (vector pRP V)): perfectly protected and shows no symptom
- time to development of chlorosis ([10]; doses ranging from 50 to 400 g/ha): about 72 hours
- very pronounced necrosis, share of the terminal leaves covered ([10]; within one week, doses 50 to 400 g/ha): about 80%
- phytotoxicity, percentage destruction ([1]; 200 g/ha postemergence): 2%
- phytotoxicity, percentage destruction ([1]; 400 g/ha postemergence): 3%
- Number of dead plants ([11]; 100 g/ha): 6
- Number of germinated plants ([11]; 100 g/ha): 9
- Number of surviving plants ([11]; 100 g/ha): 3
- Number of dead plants ([11]; 200 g/ha): 7
- Number of germinated plants ([11]; 200 g/ha): 10
- Number of surviving plants ([11]; 200 g/ha): 3
- Number of dead plants ([12]; 100 g/ha): 5
- Number of germinated plants ([12]; 100 g/ha): 10
- Number of surviving plants ([12]; 100 g/ha): 5
- Number of dead plants ([12]; 200 g/ha): 4
- Number of germinated plants ([12]; 200 g/ha): 9
- Number of surviving plants ([12]; 200 g/ha): 5
- Number of dead plants ([13]; 100 g/ha): 3
- Number of germinated plants ([13]; 100 g/ha): 5
- Number of surviving plants ([13]; 100 g/ha): 2
- Number of dead plants ([13]; 200 g/ha): 7
- Number of germinated plants ([13]; 200 g/ha): 7
- Number of surviving plants ([13]; 200 g/ha): 0
- tolerance [2]: tolerant
- Number of dead plants (nontransgenic maize): 20
- Number of germinated plants (nontransgenic maize): 20
- Number of surviving plants (nontransgenic maize): 0
- phytotoxicity, percentage destruction ([14]; 200 g/ha postemergence): 4%
- phytotoxicity, percentage destruction ([14]; 400 g/ha postemergence): 5%
- phytotoxicity, percentage destruction ([3]; 200 g/ha postemergence): 75%
- phytotoxicity, percentage destruction ([3]; 400 g/ha postemergence): 85%
